Reference: patent US20190298840A1, “FORMULATIONS COMPRISING HETEROCYCLIC RING SYSTEMS AND USES THEREOF” (Particle Sciences, Inc., priority 2016, published 2019)
Each block holds one compound with its values, some of them ahead of it.

Experiments:
[1] = system: IgG; assay: IgG binding experiment, free IgG measured after overnight binding (FIG. 10); design: species or system human; conditions: PBS and water conditions
Protocol: Human IgG1 or albumin shall be used as the biomolecule of interest.
In separate trials, the experiment was done in presence of water and PBS buffer solutions. The percentage of unbound IgG and pyridinium bound IgG were determined by measuring the free IgG (protein) after the protein was allowed to bind overnight with pyridinium constructs.

[2] = target: Immunoglobulin G (IgG); assay: Microscale thermophoresis binding affinity with IgG (Monolith NT.115); conditions: construct 500 nM, IgG 12.5 μM-350 pM
Protocol: (§1) Binding affinities of pyridinium constructs with macromolecules were measure using Monolith NT.115 system developed by Nano Temper technology (https://nanotempertech.com/monolith/). The Monolith NT.115 equipment measures the strength of the interactions between a fluorescently labeled or intrinsically fluorescent sample and a binding partner such as a macromolecule are measured while a temperature gradient is applied over time. The molecular mobility of a fluorescently labeled construct in a thermo gradient when alone and in presence of increasing concentrations of binding partner is compared. From this, binding affinity (Kd) is calculated from a fitted curve that plots normalized fluorescence against concentration of ligand.
The experiment was conducted to measure the binding affinity of the pyridinium construct containing fluorescein with increasing concentrations of Immunoglobulin G (IgG) in presence of PBS buffer and saline. The results of the binding affinity curve at increasing concentrations of IgG in two different solutions (PBS & Saline) are shown in FIG. 16.
(§2) The IgG protein was tested at a concentration range of 12.5 μM-350 pM and the pyridinium-fluorescein construct was at a concentration of 500 nM. Likewise, for experiments involving HSA, the HSA protein was at a concentration range of 125 μM-3.5 nM and the pyridinium-fluorescein construct was at a concentration of 500 nM.

[3] = target: human serum albumin (HSA) (Homo sapiens, UniProt P02768); assay: Microscale thermophoresis binding affinity with HSA (Monolith NT.115); conditions: construct 500 nM, HSA 125 μM-3.5 nM, compared with IgG
human serum albumin (HSA), sequence (P02768 25-609): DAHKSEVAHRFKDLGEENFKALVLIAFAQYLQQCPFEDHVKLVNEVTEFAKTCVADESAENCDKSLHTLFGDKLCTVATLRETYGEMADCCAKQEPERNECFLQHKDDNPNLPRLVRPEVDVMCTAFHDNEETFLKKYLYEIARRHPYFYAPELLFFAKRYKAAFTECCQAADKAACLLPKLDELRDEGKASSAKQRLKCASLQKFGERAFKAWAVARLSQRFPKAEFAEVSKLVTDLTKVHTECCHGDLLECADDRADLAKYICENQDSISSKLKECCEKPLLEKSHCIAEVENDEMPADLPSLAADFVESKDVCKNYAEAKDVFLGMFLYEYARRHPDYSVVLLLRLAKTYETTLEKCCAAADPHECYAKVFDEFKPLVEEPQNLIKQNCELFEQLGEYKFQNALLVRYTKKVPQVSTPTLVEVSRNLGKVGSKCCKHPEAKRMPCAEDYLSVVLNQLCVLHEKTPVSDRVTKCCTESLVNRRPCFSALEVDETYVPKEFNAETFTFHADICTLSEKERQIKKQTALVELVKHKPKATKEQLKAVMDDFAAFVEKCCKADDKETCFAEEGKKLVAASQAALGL
Protocol: as §1, §2
The experiment was repeated with human serum albumin (HSA) instead of IgG under similar conditions. The results of the binding affinity curve at increasing concentrations of HSA in two different solutions (PBS & Saline) are shown in FIG. 17.

[4] = system: rabbit IgG; assay: ELISA with pyridinium-biotin construct on IgG coated, BSA blocked wells vs BSA only wells (FIG. 20); type: binding; conditions: PBS buffer; femtomole range of construct; avidin-HRP detection
Excerpt: Another variation of ELISA assay is one in which the plate wells are first coated with rabbit IgG. After a wash with PBS buffer, the IgG coated wells are blocked with bovine serum albumin (BSA) to saturate the remaining surface of the wells in order to lower background noise. A set of control wells are coated and blocked with BSA only as described above. The IgG coated and BSA blocked wells are then reacted with pyridinium-biotin construct in PBS buffer. Increasing amounts of with pyridinium-biotin construct in femtomole range are added in different wells. Those wells are washed with PBS buffer and reacted with constant amount of avidin-Horseradish peroxidase (HRP) in PBS. The colorimetric product of the reaction is then detected by an ELISA plate reader.

Structure (SMILES): CCCCCCCCCCCCCCCC[N+](C)(C)C.[Br-] [CTAB, Cetyl trimethylammonium bromide]
binding to IgG [1]: did not bind to the IgG protein

Kd ([2]; in PBS): 0.02 µM
Kd ([2]; in saline): 1.5 µM
binding affinity to HSA ([3]; PBS solution): much lower than that of IgG
binding affinity to HSA ([3]; saline solution): comparable to that of IgG
Structure (SMILES): O=C(NCC[n+]1ccccc1)c1ccc2c(c1)C1(OC2=O)c2ccc(O)cc2Oc2cc(O)ccc21 [pyridinium-fluorescein construct, 1-(2-(3′,6′-dihydroxy-3-oxo-3H-spiro[isobenzofuran-1,9′-xanthene]-6-ylcarboxamido)ethyl)pyridinium]

Structure (SMILES): O=C(CCCCC1SCC2NC(=O)NC21)NCC[n+]1ccccc1 (stereo not drawn) [pyridinium constructs, 1-(2-(5-(2-oxohexahydro-1H-thieno[3,4-d]imidazol-4-yl)pentanamido)ethyl)pyridinium]
binding affinity in ELISA, IgG vs BSA dilution curves [4]: strong binding affinity of IgG even at lower concentrations when compared with that of BSA
